biological target: T1, human TRPV1 receptor (Homo sapiens, UniProt Q8NER1); assay: Ca2+ influx assay (FLIPR, Fluo-4 AM) of capsaicin-evoked response in cells expressing recombinant TRPV1; type: cell-based; conditions: 1321N1 human astrocytoma cells expressing hTRPV1; inhibition of 0.05 μM capsaicin-induced [Ca2+]i increase
T1 construct: expressed in transfected cells
Method: Dulbecco's modified Eagle medium (D-MEM) (with 4.5 mg/mL glucose) and fetal bovine serum were obtained from Hyclone Laboratories, Inc. (Logan, Utah). Dulbecco's phosphate-buffered saline (D-PBS) (with 1 mg/mL glucose and 3.6 mg/l Na pyruvate, without phenol red), L-glutamine, hygromycin B, and Lipofectamine® were obtained from Life Technologies (Grand Island, N.Y.). G418 sulfate was obtained from Calbiochem-Novabiochem Corp. (San Diego, Calif.). Capsaicin (8-methyl-N-vanillyl-6-nonenamide) was obtained from Sigma-Aldrich, Co. (St. Louis, Mo.). Fluo-4 AM (N-[4-[6-[(acetyloxy)methoxy]-2,7-difluoro-3-oxo-3H-xanthen-9-yl]-2-[2-[2-[bis[2-[(acetyloxy)methoxy]-2-oxyethyl]amino]-5-methylphenoxy]ethoxy]phenyl]-N-[2-[(acetyloxy)methoxy]-2-oxyethyl]-glycine, (acetyloxy)methyl ester) was purchased from Molecular Probes (Eugene, Oreg.).
The cDNAs for the human TRPV1 receptor were isolated by reverse transcriptase-polymerase chain reaction (RT-PCR) from human small intestine poly A+RNA supplied by Clontech (Palo Alto, Calif.) using primers designed surrounding the initiation and termination codons identical to the published sequences (Hayes et al. Pain 2000, 88, 205-215). The resulting cDNA PCR products were subcloned into pCIneo mammalian expression vector (Promega) and fully sequenced using fluorescent dye-terminator reagents (Prism, Perkin-Elmer Applied Biosystems Division) and a Perkin-Elmer Applied Biosystems Model 373 DNA sequencer or Model 310 genetic analyzer. Expression plasmids encoding the hTRPV1 cDNA were transfected individually into 1321N1 human astrocytoma cells using Lipofectamine®. Forty-eight hours after transfection, the neomycin-resistant cells were selected with growth medium containing 800 μg/mL Geneticin (Gibco BRL). Surviving individual colonies were isolated and screened for TRPV1 receptor activity. Cells expressing recombinant homomeric TRPV1 receptors were maintained at 37° C. in D-MEM containing 4 mM L-glutamine, 300 μg/mL G418 (Cal-biochem) and 10% fetal bovine serum under a humidified 5% CO2 atmosphere.
The functional activity of compounds at the TRPV1 receptor was determined with a Ca^2+ influx assay and measurement of intracellular Ca^2+ levels ([Ca^2+]i). All compounds were tested over an 11-point half-log concentration range. Compound solutions were prepared in D-PBS (4× final concentration), and diluted serially across 96-well v-bottom tissue culture plates using a Biomek 2000 robotic automation workstation (Beckman-Coulter, Inc., Fullerton, Calif.). A 0.2 μM solution of the TRPV1 agonist capsaicin was also prepared in D-PBS. The fluorescent Ca^2+ chelating dye Fluo-4 AM was used as an indicator of the relative levels of [Ca^2+]i in a 96-well format using a Fluorescence Imaging Plate Reader (FLIPR) (Molecular Devices, Sunnyvale, Calif.). Cells were grown to confluency in 96-well black-walled tissue culture plates. Then, prior to the assay, the cells were loaded with 100 μL per well of Fluo-4 AM (2 μM, in D-PBS) for 1-2 hours at 23° C. Washing of the cells was performed to remove extracellular Fluo-4 AM (2×1 mL D-PBS per well), and afterward, the cells were placed in the reading chamber of the FLIPR instrument. 50 μL of the compound solutions were added to the cells at the 10 second time mark of the experimental run. Then, after a 3-minute time delay, 50 μL of the capsaicin solution was added at the, 190 second time mark (0.05 μM final concentration)(final volume=200 μL) to challenge the TRPV1 receptor. Time length of the experimental run was 240 seconds. Fluorescence readings were made at 1 to 5 second intervals over the course of the experimental run. The peak increase in relative fluorescence units (minus baseline) was calculated from the 190 second time mark to the end of the experimental run, and expressed as a percentage of the 0.05 μM capsaicin (control) response. […]

T1 sequence (Q8NER1 whole entry): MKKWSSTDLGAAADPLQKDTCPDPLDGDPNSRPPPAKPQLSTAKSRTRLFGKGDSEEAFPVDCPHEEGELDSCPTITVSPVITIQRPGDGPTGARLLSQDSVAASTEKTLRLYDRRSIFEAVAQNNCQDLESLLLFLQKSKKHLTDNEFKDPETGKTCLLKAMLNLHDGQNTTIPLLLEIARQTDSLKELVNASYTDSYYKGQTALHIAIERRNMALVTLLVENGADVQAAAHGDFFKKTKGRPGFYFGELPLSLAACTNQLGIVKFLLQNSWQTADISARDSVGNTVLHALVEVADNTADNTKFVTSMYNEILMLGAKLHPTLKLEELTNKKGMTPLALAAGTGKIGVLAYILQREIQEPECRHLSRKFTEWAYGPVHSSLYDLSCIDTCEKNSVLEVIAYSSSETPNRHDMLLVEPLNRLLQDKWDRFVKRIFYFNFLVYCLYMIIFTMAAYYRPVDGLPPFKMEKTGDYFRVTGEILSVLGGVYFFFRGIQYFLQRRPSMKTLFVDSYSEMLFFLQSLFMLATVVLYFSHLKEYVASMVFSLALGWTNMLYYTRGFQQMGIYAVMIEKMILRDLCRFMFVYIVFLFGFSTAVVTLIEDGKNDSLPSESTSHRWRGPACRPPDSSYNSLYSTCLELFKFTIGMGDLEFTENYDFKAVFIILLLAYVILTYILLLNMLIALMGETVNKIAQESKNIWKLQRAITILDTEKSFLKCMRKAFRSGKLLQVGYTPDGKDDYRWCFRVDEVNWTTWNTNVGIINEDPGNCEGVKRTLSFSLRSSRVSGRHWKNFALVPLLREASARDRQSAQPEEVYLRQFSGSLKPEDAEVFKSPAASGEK

IC50 [nM] | SMILES
20 | C[C@@H]1CN(c2ncccc2Cl)CC=C1C(=O)Nc1ccc(C(F)(F)F)cc1 [Example 2, (3S)-3′-chloro-3-methyl-N-[4-(trifluoromethyl)phenyl]-3,6-dihydro-2H-1,2′-bipyridine-4-carboxamide]
63 | Cc1cccnc1N1CC=C(C(=O)Nc2ccc(C(F)(F)F)cc2)[C@H](C)C1 [Example 8, (3S)-3,3′-dimethyl-N-[4-(trifluoromethyl)phenyl]-3,6-dihydro-2H-1,2′-bipyridine-4-carboxamide]
26 | C[C@@H]1CN(c2ncccc2C(F)(F)F)CC=C1C(=O)Nc1ccc(C(F)(F)F)cc1 [Example 4, (3S)-3-methyl-3′-(trifluoromethyl)-N-[4-(trifluoromethyl)phenyl]-3,6-dihydro-2H-1,2′-bipyridine-4-carboxamide]
1300 | Cc1cccnc1N1CC=C(C(=O)Nc2ccc(C(C)(C)C#N)cc2)[C@@H](C)C1 [Example 18, (3R)—N-(4-(2-cyanopropan-2-yl)phenyl)-3-methyl-1-(3-methylpyridin-2-yl)-1,2,3,6-tetrahydropyridine-4-carboxamide]
84 | C[C@H]1CN(c2ncccc2Cl)CC=C1C(=O)Nc1ccc(C(F)(F)F)cc1 [Example 7, (3R)-3′-chloro-3-methyl-N-[4-(trifluoromethyl)phenyl]-3,6-dihydro-2H-1,2′-bipyridine-4-carboxamide]
480 | C[C@H]1CN(c2ncccc2C(F)(F)F)CC=C1C(=O)Nc1ccc(C(F)(F)F)cc1 (single isomer, unassigned) [Example 10]
13 | Cc1cccnc1N1CC=C(C(=O)Nc2ccc(C(C)(C)C#N)cc2)[C@H](C)C1 (single isomer, unassigned) [Example 17]
620 | Cc1cccnc1N1CC=C(C(=O)Nc2ccc(C(C)(C)C)cc2)[C@@H](C)C1 (single isomer, unassigned) [Example 16]
190 | Cc1cccnc1N1CC=C(C(=O)Nc2ccc(C(F)(F)F)nc2)[C@H](C)C1 (single isomer, unassigned) [Example 19]

Further lines, the compound ahead of its results:

SMILES | IC50 [nM]
C[C@H]1CN(c2ncccc2C(F)(F)F)CC=C1C(=O)Nc1ccc(C(C)(C)C#N)cc1 (single isomer, unassigned) [Example 14] | 710
Cc1cccnc1N1CC=C(C(=O)Nc2ccc(C(F)(F)F)nc2)[C@@H](C)C1 (single isomer, unassigned) [Example 20] | 3100
C[C@@H]1CN(c2ncccc2C(F)(F)F)CC=C1C(=O)Nc1ccc(S(=O)(=O)C(F)(F)F)cc1 (single isomer, unassigned) [Example 11] | 40
C[C@@H]1CN(c2ncccc2C(F)(F)F)CC=C1C(=O)Nc1ccc(C(C)(C)C#N)cc1 (single isomer, unassigned) [Example 13] | 89
Cc1cccnc1N1CC=C(C(=O)Nc2ccc(C(F)(F)F)cc2)[C@@H](C)C1 (single isomer, unassigned) [Example 9] | 380
Cc1cccnc1N1CC=C(C(=O)Nc2ccc(C(C)(C)C)cc2)[C@H](C)C1 (single isomer, unassigned) [Example 15] | 15
C[C@H]1CN(c2ncccc2Cl)CC=C1C(=O)Nc1ccc(S(=O)(=O)C(F)(F)F)cc1 [Example 5, (3R)-3′-chloro-3-methyl-N-{4-[(trifluoromethyl)sulfonyl]phenyl}-3,6-dihydro-2H-1,2′-bipyridine-4-carboxamide] | 230
C[C@@H]1CN(c2ncccc2Cl)CC=C1C(=O)Nc1ccc(S(=O)(=O)C(F)(F)F)cc1 [Example 1, (3S)-3′-chloro-3-methyl-N-{4-[(trifluoromethyl)sulfonyl]phenyl}-3,6-dihydro-2H-1,2′-bipyridine-4-carboxamide] | 28
Cc1cccnc1N1CC=C(C(=O)Nc2ccc(S(=O)(=O)C(F)(F)F)cc2)[C@@H](C)C1 [Example 6, (3R)-3,3′-dimethyl-N-{4-[(trifluoromethyl)sulfonyl]phenyl}-3,6-dihydro-2H-1,2′-bipyridine-4-carboxamide] | 760
C[C@H]1CN(c2ncccc2C(F)(F)F)CC=C1C(=O)Nc1ccc(S(=O)(=O)C(F)(F)F)cc1 (single isomer, unassigned) [Example 12] | 640
Cc1cccnc1N1CC=C(C(=O)Nc2ccc(S(=O)(=O)C(F)(F)F)cc2)[C@H](C)C1 [Example 3, (3S)-3,3′-dimethyl-N-{4-[(trifluoromethyl)sulfonyl]phenyl}-3,6-dihydro-2H-1,2′-bipyridine-4-carboxamide] | 20
